This passage reports IC50, ED50 and EC15 results from ChEMBL document CHEMBL2021801, “Thienopyridine ureas as dual inhibitors of the VEGF and Aurora kinase families” (Bioorg Med Chem Lett, 2012).

Test [1] addresses Vascular endothelial growth factor receptor 2 (Homo sapiens, UniProt P35968). As to the kind of experiment: Inhibition of KDR using 1 mM ATP by HTRF assay.
Test [2] addresses T1, Aurora kinase B (Homo sapiens, UniProt Q96GD4). As to the kind of experiment: Inhibition of Aurora B using 1 mM ATP by HTRF assay.
In test [3] the test system is Mus musculus. As to the kind of experiment: In vivo inhibition of KDR in po dosed mouse assessed as estradiol-induced uterine edema. The test is classed as functional.
Test [4] addresses T1, Aurora kinase B. The following applies: NCI-H1229.

pIC50: −log10 of the molar value.

T1 sequence (Q96GD4 whole entry): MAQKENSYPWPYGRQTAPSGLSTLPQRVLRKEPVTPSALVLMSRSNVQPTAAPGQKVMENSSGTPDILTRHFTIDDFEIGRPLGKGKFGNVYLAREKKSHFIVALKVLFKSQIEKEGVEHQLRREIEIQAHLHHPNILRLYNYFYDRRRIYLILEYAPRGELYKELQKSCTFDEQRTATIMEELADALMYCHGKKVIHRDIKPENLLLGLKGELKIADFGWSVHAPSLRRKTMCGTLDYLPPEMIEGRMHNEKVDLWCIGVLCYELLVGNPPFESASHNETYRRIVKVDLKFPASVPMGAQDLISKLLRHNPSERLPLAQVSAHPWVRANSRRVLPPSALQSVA
Chain of Vascular endothelial growth factor receptor 2 (P35968 whole entry): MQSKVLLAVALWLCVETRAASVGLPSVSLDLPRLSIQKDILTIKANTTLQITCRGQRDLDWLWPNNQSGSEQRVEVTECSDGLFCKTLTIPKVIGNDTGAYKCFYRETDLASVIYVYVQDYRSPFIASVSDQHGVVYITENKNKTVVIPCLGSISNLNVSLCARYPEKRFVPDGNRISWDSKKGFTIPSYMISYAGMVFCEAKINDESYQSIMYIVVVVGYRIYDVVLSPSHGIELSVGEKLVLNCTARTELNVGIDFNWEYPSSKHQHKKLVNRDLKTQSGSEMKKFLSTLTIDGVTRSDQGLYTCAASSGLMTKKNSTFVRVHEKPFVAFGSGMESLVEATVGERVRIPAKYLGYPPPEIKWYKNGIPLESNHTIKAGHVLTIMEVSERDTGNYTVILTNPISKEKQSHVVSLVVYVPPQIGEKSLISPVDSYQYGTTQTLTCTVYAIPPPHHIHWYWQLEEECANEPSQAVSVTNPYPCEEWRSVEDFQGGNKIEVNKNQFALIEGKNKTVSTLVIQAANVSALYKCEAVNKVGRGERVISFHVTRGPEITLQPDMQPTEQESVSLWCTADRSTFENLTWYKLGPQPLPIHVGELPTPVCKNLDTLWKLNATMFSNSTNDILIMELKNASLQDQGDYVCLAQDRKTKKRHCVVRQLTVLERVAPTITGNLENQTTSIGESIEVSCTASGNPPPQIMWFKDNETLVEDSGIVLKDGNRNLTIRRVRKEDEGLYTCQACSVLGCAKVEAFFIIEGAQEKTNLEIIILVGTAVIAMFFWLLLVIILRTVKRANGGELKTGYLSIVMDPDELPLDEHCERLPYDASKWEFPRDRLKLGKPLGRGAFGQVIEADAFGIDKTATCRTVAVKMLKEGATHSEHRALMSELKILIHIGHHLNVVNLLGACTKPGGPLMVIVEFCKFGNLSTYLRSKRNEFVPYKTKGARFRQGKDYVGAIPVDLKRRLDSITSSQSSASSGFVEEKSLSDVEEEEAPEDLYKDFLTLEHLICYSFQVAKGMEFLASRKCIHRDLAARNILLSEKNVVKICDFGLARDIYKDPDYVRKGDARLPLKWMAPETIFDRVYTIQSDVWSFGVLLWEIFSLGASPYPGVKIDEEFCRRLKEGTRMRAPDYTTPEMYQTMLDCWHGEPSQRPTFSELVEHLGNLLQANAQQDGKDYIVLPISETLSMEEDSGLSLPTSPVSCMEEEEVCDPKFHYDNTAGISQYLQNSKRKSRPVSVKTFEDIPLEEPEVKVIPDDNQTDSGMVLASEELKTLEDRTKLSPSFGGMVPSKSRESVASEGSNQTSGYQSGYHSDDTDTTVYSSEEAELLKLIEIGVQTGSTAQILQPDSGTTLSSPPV

On to `Cn1cc(-c2cnc(N)c3c(-c4ccc(NC(=O)Nc5ccc(Cl)cc5)cc4)csc23)cn1`, for which the results for the pIC50 in test [1] and in test [2] were 8.10 and 7.32, respectively. Further, the ED50 in test [3] was found to be 0.3 mg/kg. Besides, the EC15 in test [4] came out at 27 nM.
With `Nc1ncc(-c2cnn(CCCN3CC[C@@H](O)C3)c2)c2scc(-c3ccc(NC(=O)Nc4cccc(F)c4)cc3)c12`, the pIC50 in test [1] and in test [2] was 8.70 throughout. For the same compound, in test [4], the EC15 is < 1 nM.
As to `Cc1ccc(NC(=O)Nc2ccc(-c3csc4c(-c5cnn(C)c5)cnc(N)c34)cc2)cc1`, the negative logarithm of the IC50 (pIC50) in test [2] was 7.30. The ED50 in test [3] amounted to 1 mg/kg. The EC15 in test [4] is 64 nM.
On to `Nc1ncc(-c2cnn(CCN3CCCCC3)c2)c2scc(-c3ccc(NC(=O)Nc4cccc(F)c4)cc3)c12`, for which the values for the pIC50 in test [1] and in test [2] were 8.40 and 8.10, respectively. The ED50 in test [3] is > 10 mg/kg. Further, the EC15 in test [4] was < 3 nM.
For `COc1ccccc1NC(=O)Nc1ccc(-c2csc3c(-c4cnn(C)c4)cnc(N)c23)cc1` the same measures were 8.22, 7.28, 8 mg/kg and > 100 nM.
On to `Cc1cccc(NC(=O)Nc2ccc(-c3csc4c(-c5ccccc5)cnc(N)c34)cc2)c1`, for which the pIC50 in test [2] was 5.48.
Turning to `Cn1cc(-c2cnc(N)c3c(-c4ccc(NC(=O)Nc5ccc(OC(F)(F)F)cc5)cc4)csc23)cn1`, the negative-log IC50 (pIC50) in test [1] was 8.52; in test [2], 7.77. For the same compound, the ED50 in test [3] is 2.6 mg/kg. The EC15 in test [4] stood at 12 nM.
With `Cc1ccccc1NC(=O)Nc1ccc(-c2csc3c(-c4cnn(C)c4)cnc(N)c23)cc1`, the values for the negative logarithm of the IC50 (pIC50) in test [1] and in test [2] were 8.70 and 8.10, respectively. In test [3], the ED50 is 3.5 mg/kg. Moreover, the EC15 in test [4] is 2 nM.
For `CC(C)Cn1cc(-c2cnc(N)c3c(-c4ccc(NC(=O)Nc5cccc(F)c5)cc4)csc23)cn1` the same measures were 7.60, 6.75, 1.1 mg/kg and 355 nM.
As to `CS(=O)(=O)CCn1cc(-c2cnc(N)c3c(-c4ccc(NC(=O)Nc5cccc(F)c5)cc4)csc23)cn1`, the values for the pIC50 in test [1] and in test [2] were 9.00 and 7.96, respectively. For the same compound, in test [3], the ED50 was found to be 10 mg/kg. Also, in test [4], the EC15 was found to be 4 nM.
As to `CC(C)CCn1cc(-c2cnc(N)c3c(-c4ccc(NC(=O)Nc5cccc(F)c5)cc4)csc23)cn1`, the pIC50 is 7.60 in test [1] and 6.28 in test [2].
As to `Cc1cccc(NC(=O)Nc2ccc(-c3csc4c(-c5cn[nH]c5)cnc(N)c34)cc2)c1`, in test [2], the pIC50 is 8.10. The same compound yielded an EC15 in test [4] of 31 nM.
`Cn1cc(-c2cnc(N)c3c(-c4ccc(NC(=O)Nc5cccc(Cl)c5)cc4)csc23)cn1`: the results for the pIC50 in test [1] and in test [2] were 8.15 and 7.15, respectively. Also, the ED50 in test [3] was 2 mg/kg. In test [4], the EC15 came to 18 nM.
The compound `Cc1cccc(NC(=O)Nc2ccc(-c3csc4c(C#CCN(C)C)cnc(N)c34)cc2)c1` showed a pIC50 in test [2] of 7.96. In test [4], this compound yielded an EC15 of 141 nM.
`Cn1cc(-c2cnc(N)c3c(-c4ccc(NC(=O)Nc5ccccc5)cc4)csc23)cn1`: the pIC50 was 8.52 in test [1] and 8.22 in test [2]. The median effective dose (ED50) in test [3] is 0.3 mg/kg. In test [4], this compound yielded an EC15 of 9 nM.
For `CN1CCC(n2cc(-c3cnc(N)c4c(-c5ccc(NC(=O)Nc6cccc(F)c6)cc5)csc34)cn2)C1=O` (stereo unspecified) the same measures were 8.22, 8.30, 0.4 mg/kg and 1 nM.
For `Cn1cc(-c2cnc(N)c3c(-c4ccc(NC(=O)Nc5cccc(C(N)=O)c5)cc4)csc23)cn1` the same measures were 8.70, 7.64, > 10 mg/kg and 413 nM.
For the compound `Cn1cc(-c2cnc(N)c3c(-c4ccc(NC(=O)Nc5ccccc5F)cc4)csc23)cn1`, the figures for the negative-log IC50 (pIC50) in test [1] and in test [2] were 8.52 and 7.74, respectively. Besides, the ED50 in test [3] stood at 1.1 mg/kg. Moreover, the EC15 in test [4] was < 30 nM.

The term pIC50 denotes the IC50 on a negative log10 scale, so that one unit is a factor of ten. Read a low pIC50 as a high IC50. As a reminder, the ED50 is the dose that gives a 50% effect, or the effect in half of the subjects.
